One assay addresses T1, human Keap1 kelch domain (amino acids Ala321-Thr609) (Homo sapiens, UniProt Q14145).
T1 construct: human Keap1 kelch domain (amino acids Ala321-Thr609)
As to the kind of experiment: Keap1-Nrf2 peptide binding assay (fluorescence polarisation). As to conditions: binding to fluorescently labeled human Nrf2 peptide; 20 nM Keap1 kelch domain, 50 nM peptide. As for the experimental part:
Keap1-Nrf2 peptide binding assay
Two microliters of test compound in reaction buffer (phosphate-buffered saline, 2 mM DL-dithiothreitol, 0.015 % (v/v) Brij-35) containing 6 % (v/v) DMSO were mixed with two microliters of the Keap1 kelch domain in reaction buffer in a black 384-well small volume microtiter plate and incubated at ambient temperature for 15 minutes. Thereafter, two microliters were added of the fluorescently labeled Nrf2 peptide in reaction buffer, and the mixture was incubated for a further 30 minutes at ambient temperature. Final concentrations of the Keap1 kelch domain and the fluorescently labeled Nrf2 peptide were 20 nM and 50 nM, respectively.
Fluorescence polarization (FP) was measured at excitation and emission wavelengths of 635 nm and 660 nm, respectively. Positive controls for binding (two microliters of reaction buffer containing 6 % (v/v) DMSO instead of test compound in the same buffer) and negative controls (as positive controls, but without Keap1 kelch domain) were included on each microtiter plate.
T1 sequence (Q14145 321-609): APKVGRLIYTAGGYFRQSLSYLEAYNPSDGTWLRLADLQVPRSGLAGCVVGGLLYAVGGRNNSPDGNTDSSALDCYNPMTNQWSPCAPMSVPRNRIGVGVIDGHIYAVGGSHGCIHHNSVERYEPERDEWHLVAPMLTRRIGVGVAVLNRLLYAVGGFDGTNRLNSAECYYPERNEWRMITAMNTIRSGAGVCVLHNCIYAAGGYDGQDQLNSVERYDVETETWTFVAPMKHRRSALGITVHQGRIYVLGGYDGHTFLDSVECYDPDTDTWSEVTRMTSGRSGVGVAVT
For `Cc1nn(-c2ccccc2)c(C)c1S(=O)(=O)Nc1ccc(N2CC[C@H](C(=O)O)C2)c2ccccc12` [Example 25, (3S)-1-[4-[(3,5-dimethyl-1-phenyl-pyrazol-4-yl)sulfonylamino]-1-naphthyl]pyrrolidine-3-carboxylic acid], the IC50 (commonly the point on the concentration scale where inhibition reaches its midpoint) was determined as 4100 nM. The same measure, in the same setting: next, `Cc1c(S(=O)(=O)Nc2ccc(N3CC[C@@H](C(=O)O)C3)c3ccccc23)cnn1CC(C)C` [Example 49, (3R)-1-[4-[(1-isobutyl-5-methyl-pyrazol-4-yl)sulfonylamino]-1-naphthyl]pyrrolidine-3-carboxylic acid]: 2900 nM; `Cc1ccc(Cl)cc1S(=O)(=O)Nc1ccc(N2CC[C@H](C(=O)O)C2)c2ccccc12` [Example 26, (3S)-1-[4-[(5-chloro-2-methylphenyl)sulfonylamino]-1-naphthyl]pyrrolidine-3-carboxylic acid]: 8100 nM; `O=C(O)[C@@H]1CCN(c2ccc(NS(=O)(=O)c3cccc4c3OCCO4)c3ccccc23)C1` [Example 74, (3R)-1-[4-(2,3-dihydro-1,4-benzodioxin-5-ylsulfonylamino)-1-naphthyl]pyrrolidine-3-carboxylic acid]: 9100 nM. Molecule `Cc1nc(C)c(S(=O)(=O)Nc2ccc(N3CC[C@@H](C(=O)O)C3)c3ccccc23)s1` [Example 41, (3R)-1-[4-[(2,4-dimethylthiazol-5-yl)sulfonylamino]-1-naphthyl]pyrrolidine-3-carboxylic acid] returned an IC50 of 1600 nM. On to `Cc1nn(-c2ccccc2)c(C)c1S(=O)(=O)Nc1ccc(N2CC[C@@H](C(=O)O)C2)c2ccccc12` [Example 42, (3R)-1-[4-[(3,5-dimethyl-1-phenyl-pyrazol-4-yl)sulfonylamino]-1-naphthyl]pyrrolidine-3-carboxylic acid], for which the 50% inhibitory concentration (IC50) was found to be 3000 nM. For the molecule `O=C(O)[C@H]1CCN(c2ccc(NS(=O)(=O)c3cc(Cl)ccc3Cl)c3ccccc23)C1` [Example 28, (3S)-1-[4-[(2,5-dichlorophenyl)sulfonylamino]-1-naphthyl]pyrrolidine-3-carboxylic acid], the IC50 worked out at 5800 nM. Regarding `O=C(O)[C@@H]1CCN(c2ccc(NS(=O)(=O)c3cc(Cl)ccc3Cl)c3ccccc23)C1` [Example 48, (3R)-1-[4-[(2,5-dichlorophenyl)sulfonylamino]-1-naphthyl]pyrrolidine-3-carboxylic acid], the IC50 came to 2500 nM. In turn, `O=C(O)[C@H]1CCN(c2ccc(NS(=O)(=O)c3cccc(Cl)c3Cl)c3ccccc23)C1` [Example 20, (3S)-1-[4-[(2,3-dichlorophenyl)sulfonylamino]-1-naphthyl]pyrrolidine-3-carboxylic acid] returned an IC50 of 8600 nM.

Still in this assay, the particulars now being: binding to fluorescently labeled human Nrf2 peptide; 20 nM Keap1 kelch domain, 50 nM peptide; read-out: IC50.
Regarding `CCCCCCCCn1nc(C)c(S(=O)(=O)Nc2ccc(N3CC[C@@H](C(=O)O)C3)c3ccccc23)c1C` [Example 65, (3R)-1-[4-[(3,5-dimethyl-1-octyl-pyrazol-4-yl)sulfonylamino]-1-naphthyl]pyrrolidine-3-carboxylic acid], the half-inhibitory concentration (IC50) amounted to 190 nM. On to `CCCCn1cc(S(=O)(=O)Nc2ccc(N3CC[C@H](C(=O)O)C3)c3ccccc23)c(C)n1` [Example 11, (3S)-1-[4-[(1-butyl-3-methyl-pyrazol-4-yl)sulfonylamino]-1-naphthyl]pyrrolidine-3-carboxylic acid], for which the 50% inhibitory concentration (IC50) was 5000 nM. Regarding `Cc1nn(C)c(Cl)c1S(=O)(=O)Nc1ccc(N2CCC(C)(C(=O)O)C2)c2ccccc12` (stereo not drawn) [Example 10, 1-[4-[(5-chloro-1,3-dimethyl-pyrazol-4-yl)sulfonylamino]-1-naphthyl]-3-methyl-pyrrolidine-3-carboxylic acid], the IC50 stood at 1000 nM. With `COc1ccc(F)c(S(=O)(=O)Nc2ccc(N3CC[C@H](C(=O)O)C3)c3ccccc23)c1` [Example 27, (3S)-1-[4-[(2-fluoro-5-methoxyphenyl)sulfonylamino]-1-naphthyl]pyrrolidine-3-carboxylic acid], the IC50 is 7100 nM. As for `Cc1cc(C)c(C)c(S(=O)(=O)Nc2ccc(N3CCC[C@H](C(=O)O)C3)c3ccccc23)c1C` [Example 59, (3S)-1-[4-[(2,3,5,6-tetramethylphenyl)sulfonylamino]-1-naphthyl]piperidine-3-carboxylic acid], the IC50 amounted to 500 nM. For `Cc1c(S(=O)(=O)Nc2ccc(N3CC[C@@H](C(=O)O)C3)c3ncccc23)sc2cccc(F)c12` [Example 70, (3R)-1-[5-[(4-fluoro-3-methyl-benzothiophen-2-yl)sulfonylamino]-8-quinolyl]pyrrolidine-3-carboxylic acid], the IC50 is 300 nM. Consider `Cc1c(S(=O)(=O)Nc2ccc(N3CC[C@@H](C(=O)O)C3)c3ccccc23)cnn1-c1ccccc1` [Example 39, (3R)-1-[4-[(5-methyl-1-phenyl-pyrazol-4-yl)sulfonylamino]-1-naphthyl]pyrrolidine-3-carboxylic acid], for which the IC50 came out at 6500 nM.

Turning to `Cc1c(S(=O)(=O)Nc2ccc(N3CC[C@H](C(=O)O)C3)c3ccccc23)cnn1CC(C)C` [Example 29, (3S)-1-[4-[(1-isobutyl-5-methyl-pyrazol-4-yl)sulfonylamino]-1-naphthyl]pyrrolidine-3-carboxylic acid], the IC50 was found to be 7000 nM.

With `Cc1c(S(=O)(=O)Nc2ccc(N3CC[C@@H](C(=O)O)C3)c3ccccc23)sc2cccc(F)c12` [Example 60, (3R)-1-[4-[(4-fluoro-3-methyl-benzothiophen-2-yl)sulfonylamino]-1-naphthyl]pyrrolidine-3-carboxylic acid], the IC50 turned out to be 130 nM. Turning to `O=C(O)[C@H]1CCN(c2ccc(NS(=O)(=O)c3ccc(Cl)cc3Cl)c3ccccc23)C1` [Example 19, (3S)-1-[4-[(2,4-dichlorophenyl)sulfonylamino]-1-naphthyl]pyrrolidine-3-carboxylic acid], the IC50 was found to be 6200 nM. As to `O=C(O)[C@@H]1CCN(c2ccc(NS(=O)(=O)c3ccc4c(c3)CCCC4)c3ccccc23)C1` [Example 77, (3R)-1-[4-(tetralin-6-ylsulfonylamino)-1-naphthyl]pyrrolidine-3-carboxylic acid], the IC50 amounted to 600 nM. As for `Cn1ccc2c(S(=O)(=O)Nc3ccc(N4CC[C@@H](C(=O)O)C4)c4ccccc34)cccc21` [Example 64, (3R)-1-[4-[(1-methylindol-4-yl)sulfonylamino]-1-naphthyl]pyrrolidine-3-carboxylic acid], the IC50 came out at 500 nM.

Consider `Cc1c(Cl)cccc1S(=O)(=O)Nc1ccc(N2CC[C@H](C(=O)O)C2)c2ccccc12` [Example 16, (3S)-1-[4-[(3-chloro-2-methylphenyl)sulfonylamino]-1-naphthyl]pyrrolidine-3-carboxylic acid], for which the IC50 was found to be 2900 nM. With `CC(=O)Nc1nc(C)c(S(=O)(=O)Nc2ccc(N3CC[C@@H](C(=O)O)C3)c3ccccc23)s1` [Example 31, (3R)-1-[4-[(2-acetamido-4-methyl-thiazol-5-yl)sulfonylamino]-1-naphthyl]pyrrolidine-3-carboxylic acid], the IC50 stood at 1900 nM. With `Cc1cc(C)c(C)c(S(=O)(=O)Nc2ccc(C3=CCC(C(=O)O)CC3)c3ccccc23)c1C` (stereo not drawn) [Example 57, 4-[4-[(2,3,5,6-tetramethylphenyl)sulfonylamino]-1-naphthyl]cyclohex-3-ene-1-carboxylic acid], the IC50 was 600 nM.

These data come from patent EP2997966A1, “Naphthyl Sulfonamide Pyrrolidine Derivatives as KEAP-1 Modulators for the Treatment of Diabetes, Obesity, Dyslipidemia and Related Disorders” (SANOFI, priority 2014, dated 2016).
